# Entries after “also recorded” stand apart in the source; their conditions may differ.
# Tests used:
# [1] = Ex vivo metabolites in rat whole blood (radio-HPLC); conditions: for Metabolism in rat blood: ex vivo, result in words
# Method: For the analysis of potential radiometabolites, blood samples (50–80 μl) from rats were withdrawn at 10 and 45 min for [^11C]SNAP-7941 and at 10, 30, and 60 min for [^18F]FE@SNAP and immediately subjected to the equivalent amount of acetonitrile, homogenized, and stored on ice before processing. Additionally, [^18F]FE@SNAP was administered to three rats, which were sacrificed after 45 min. Whole brains were harvested and homogenized with equivalent amounts (500–800 μl) of acetonitrile and 0.9 % saline solution using an ULTRA-TURRAX® (T25 basic, IKA Laboratory Equipment, Staufen, Germany). Subsequently, blood and brain were centrifuged (23,000 ×g, 4 min, 4 °C; Hettich Universal 30RF, Tuttlingen, Germany), and the obtained supernatant was analyzed by an analytical HPLC equipped with a radioactivity detector (radio-HPLC) (stationary phase: Chromolith® Performance RP-18e, 100–4.6 mm; precolumn: Chromolith® Guard Cartridge RP-18e, 5–4.6 mm; Merck, Darmstadt, Germany), mobile phase: (water/acetic acid 97.5/2.5 v/v; 2.5 g/l ammonium acetate; pH 3.5)/acetonitrile 70/30 v/v; flow: 1 ml/min, λ = 254 nm). The ratio between metabolite and intact radiotracer was calculated using quantitative HPLC analysis.
# MCHR1 [2] = biological target: T1, MCHR1 (Rattus norvegicus, UniProt P97639); assay: Small animal PET displacement study with (±)-SNAP-7941 (time-activity curves); assay type: in vivo; conditions: rats; for change of brown adipose tissue (BAT) TAC after administration of (±)-SNAP-7941 / change of lung TAC after displacement: 15 mg/kg (±)-SNAP-7941; for displacement in whole brain (TAC): 15 mg/kg (±)-SNAP-7941 i.v. 15 or 20 min after tracer
# T1 construct: from tissue; host or cells: living Sprague-Dawley rats (PET) and their organs after sacrifice
# Method: Ten-week-old male rats (412 ± 58 g, Sprague-Dawley, HIM:OFA, n = 30) and 12-week-old male mice (24 ± 6 g, BALB/cAnNRj, n = 7) were purchased from the Division of Laboratory Animal Science and Genetics, Himberg, Austria. Animals were kept under conventional housing conditions (22 ± 1 °C; 40–70 % humidity) with food and water supply ad libitum and 12-h day/night cycle. All animals were treated according to the European Union rules on animal care and respective animal experiments were approved by the Austrian Ministry of Sciences, Research and Economy (BMWFW-66.009/0029-WF/V/3b/20159). For in vivo imaging, animals were anesthetized using 1.5–2 % isoflurane mixed with oxygen (1.5–2 l/min) to avoid movement during the examination. Anesthesia as well as vital parameters were monitored during the time interval of PET acquisition. Radioligands and non-labeled compounds were administered intravenously via the lateral tail vein.
# Anesthetized rats and mice were immobilized in a multimodal animal carrier unit (MACU; medres®—medical research GmbH, Cologne, Germany). The body temperature was preserved at 37 °C throughout the whole experiment. Rats received either [^11C]SNAP-7941 or [^18F]FE@SNAP, followed by an injection of (±)-SNAP-7941 (15-mg/kg body weight; displacement study; n = 4 for each radiotracer) or the respective solvent serving as the vehicle (baseline condition; n = 4 for each radiotracer). The MCHR1 antagonist, (±)-SNAP-7941, and the vehicle were administered either 15 ([^11C]SNAP-7941) or 20 min ([^18F]FE@SNAP) after the radiotracer application via the lateral tail vein. To investigate a potential binding to the P-glycoprotein (P-gp) and/or breast cancer resistance protein (BCRP) brain efflux transporter system, rats as well as mice were pretreated either with the P-gp/BCRP inhibitor TQD (15 mg/kg body weight; P-gp/BCRP inhibition group; rats: n = 4 for each radiotracer; mice: n = 4 for [^18F]FE@SNAP) or the respective solvent (baseline condition; rats: n = 3 for each radiotracer; mice: n = 3 for [^18F]FE@SNAP)). Mice received the P-gp/BCRP inhibitor 30 min and rats 60 min before the radiotracer application. Experiments were initiated with a 7-min cone beam attenuation CT (CBCT) of the brain (full rotation, 360 projections; binning 4 × 4; 80 kV; 500 μA; 200-ms exposure time) using a small animal cone beam computed tomography (CBCT) scanner (Siemens Inveon microSPECT/CT, Siemens Medical Solutions, Knoxville, USA). Subsequently, the animals were positioned in the Siemens Inveon microPET scanner (Siemens Medical Solution, Knoxville, USA). The radiotracers were injected intravenously, and dynamic PET imaging was performed for 45 min (rats) in case of [^11C]SNAP-7941 (77.46 ± 5.41 MBq; molar activity 76.66 ± 23.58 GBq/μmol; radiochemical purity > 99 %) and 30 min (mice)—60 min (rats) for [^18F]FE@SNAP (47.08 ± 6.24 MBq; molar activity 22.18 ± 9.72 GBq/μmol; radiochemical purity > 90 %).
# Image reconstruction of the CT raw data was performed with a Feldkamp algorithm using a ramp filter followed by standard rat beam-hardening correction and noise reduction (matrix size 1024 × 1024; effective pixel size: 97.56 μm). All CT image data was calibrated to Hounsfield units (HU). PET list mode data were sorted into three-dimensional sinograms according to the following frame sequences, [^11C]SNAP-7941: 1 × 3 s, 3 × 2 s, 1 × 6 s, 1 × 15 s, 1 × 35 s, 1 × 145 s, 1 × 270 s, 1 × 285 s, 1 × 165 s, 3 × 30 s, 1 × 120 s, 1 × 240 s, 1 × 420 s, 1 × 900 s and for [^18F]FE@SNAP: 1 × 2 s, 1 × 3 s, 1 × 5 s, 3 × 10 s, 1 × 20 s, 1 × 60 s, 1 × 120 s, 4 × 240 s, 4 × 600 s. PET image reconstruction were performed using an OSEM 3D/OP-MAP with scatter correction and a ramp filter (matrix size 128 × 128). Image data were normalized and corrected for random events, dead time, and radioactive decay. A calibration factor was applied to convert the activity information into absolute concentration units. […]
# MCHR1 [3] = biological target: MCHR1; set-up: method as in PMID 28808288; conditions: previous experiments; read-out: Affinity to MCHR1 (Ki); cited from earlier work
# MCHR1 [4] = biological target: T1, MCHR1; assay: Ex vivo biodistribution, vehicle vs displacement with (±)-SNAP-7941; assay type: in vivo; conditions: 15 mg/kg (±)-SNAP-7941
# Text: After the imaging studies, the animals were sacrificed by decapitation; blood and tissues were removed and collected in tubes, weighed, and subjected to radioactivity measurements in a Gamma Counter (2480 WIZARD^2, PerkinElmer, Waltham, MA, USA). Values were normalized to the applied dose, the organ, and body weight and expressed as the standardized uptake value (SUV [g/ml]).
# [5] = set-up: method as in earlier work; conditions: previous studies; ref 30 and 34 (table), 32 and 36; cited from earlier work
# [6] = 10 min after radiotracer application
# T1 sequence (P97639 whole entry): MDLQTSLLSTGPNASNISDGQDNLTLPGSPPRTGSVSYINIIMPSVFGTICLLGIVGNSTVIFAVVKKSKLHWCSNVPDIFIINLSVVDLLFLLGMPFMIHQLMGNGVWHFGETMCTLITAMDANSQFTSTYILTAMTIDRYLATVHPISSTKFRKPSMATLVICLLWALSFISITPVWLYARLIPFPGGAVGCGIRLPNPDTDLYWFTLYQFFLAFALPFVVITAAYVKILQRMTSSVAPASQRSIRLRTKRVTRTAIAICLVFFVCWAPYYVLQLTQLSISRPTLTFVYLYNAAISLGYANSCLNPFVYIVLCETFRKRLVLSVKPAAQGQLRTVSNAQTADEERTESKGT
SMILES,"intact tracer in rat whole blood [1, 6] [%]",intact tracer in rat whole blood ([1]; 45 min) [%],Metabolism in rat blood [1],change of brown adipose tissue (BAT) TAC after administration of (±)-SNAP-7941 (MCHR1 [2]),change of lung TAC after displacement (MCHR1 [2]),displacement in whole brain (TAC) (MCHR1 [2]),Ki (MCHR1 [3]) [nM],difference in colon uptake between vehicle and displacement groups (MCHR1 [4]),difference in eye uptake between vehicle and displacement groups (MCHR1 [4]),difference in pancreas uptake between vehicle and displacement groups (MCHR1 [4]),overall biodistribution: uptake in target regions after displacement (MCHR1 [4]),Lipophilicity (logD) [5],intact tracer in rat whole blood ([1]; 30 min after administration) [%],intact tracer in rat whole blood ([1]; 60 min) [%]
COCC1=C(C(=O)O[11CH3])C(c2ccc(F)c(F)c2)N(C(=O)NCCCN2CCC(c3cccc(NC(C)=O)c3)CC2)C(=O)N1 (stereo not shown) [[^11C]SNAP-7941],93.52 ± 0.1,93.74 ± 6.2,high metabolic stability; also recorded: Stable,increased uptake,drop in the TAC,clear displacement,3.91 ± 0.74,Statistically significant differences,Statistically significant differences,Statistically significant differences,decreased uptake,3.29 ± 0.01,–,–
COCC1=C(C(=O)OCC[18F])C(c2ccc(F)c(F)c2)N(C(=O)NCCCN2CCC(c3cccc(NC(C)=O)c3)CC2)C(=O)N1 (stereo not shown) [[^18F]FE@SNAP],38.40 ± 2.3,–,Rapidly metabolized,increased uptake,drop in the TAC,displacement could not be detected,9.98 ± 1.12,no statistically significant difference,significant differences,significant differences,decreased uptake,3.83 ± 0.1,31.59 ± 4.0,14.42 ± 3.3
